{
  "source": "patent EP1749819A1",
  "about": "“(rac)-N-piperidinyl-5-(4-chlorophenyl)-1-(2,4-dichlorophenyl)-4,5-dihydro-1H-pyrazole-3-carboxamide hydrates” (LABORATORIOS DEL DR. ESTEVE, S.A., priority 2005, dated 2007)",
  "key": {"[1]": {"target": "T1, transfected human CB1 and CB2 receptors: CB1-Receptor (Homo sapiens, UniProt P21554)", "T1 construct": "purchased Receptor Biology; Inc", "T1 sequence (P21554 whole entry)": "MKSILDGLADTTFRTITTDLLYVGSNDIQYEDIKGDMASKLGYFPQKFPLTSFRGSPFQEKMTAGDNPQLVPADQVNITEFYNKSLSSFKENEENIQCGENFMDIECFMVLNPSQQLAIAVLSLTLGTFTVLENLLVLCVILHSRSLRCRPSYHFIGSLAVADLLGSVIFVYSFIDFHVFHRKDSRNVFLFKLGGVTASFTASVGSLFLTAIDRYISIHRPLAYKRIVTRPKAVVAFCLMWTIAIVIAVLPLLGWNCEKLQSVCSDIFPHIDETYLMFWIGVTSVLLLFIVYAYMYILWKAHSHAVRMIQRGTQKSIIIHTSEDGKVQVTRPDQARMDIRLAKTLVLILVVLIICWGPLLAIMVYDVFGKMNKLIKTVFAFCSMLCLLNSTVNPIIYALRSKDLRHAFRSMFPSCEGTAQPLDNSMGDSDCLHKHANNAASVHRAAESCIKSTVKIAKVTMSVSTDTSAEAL", "experiment": "In-vitro determination of affinity to CB1 receptor (radioligand [^3H]-CP55940)", "format": "binding", "method": "(§1) Brockie et al., \"Agonist-inverse agonist characterization at CB1 and CB2 cannabinoid receptors of L-759633, L759656 and AM630\", British Journal of Pharmacology, 126, 665-672, (1999), whereby the transfected human CB1 and CB2 receptors of Receptor Biology. Inc. are used. The radioligand used for both receptors is [^3H]-CP55940.\n(§2) The affinity of the inventive substituted pyrazoline compounds to CB1/CB2 receptors was determined as described above."}, "[2]": {"target": "T2, transfected human CB1 and CB2 receptors: CB2-Receptor (Homo sapiens, UniProt P34972)", "T2 construct": "purchased Receptor Biology; Inc", "T2 sequence (P34972 whole entry)": "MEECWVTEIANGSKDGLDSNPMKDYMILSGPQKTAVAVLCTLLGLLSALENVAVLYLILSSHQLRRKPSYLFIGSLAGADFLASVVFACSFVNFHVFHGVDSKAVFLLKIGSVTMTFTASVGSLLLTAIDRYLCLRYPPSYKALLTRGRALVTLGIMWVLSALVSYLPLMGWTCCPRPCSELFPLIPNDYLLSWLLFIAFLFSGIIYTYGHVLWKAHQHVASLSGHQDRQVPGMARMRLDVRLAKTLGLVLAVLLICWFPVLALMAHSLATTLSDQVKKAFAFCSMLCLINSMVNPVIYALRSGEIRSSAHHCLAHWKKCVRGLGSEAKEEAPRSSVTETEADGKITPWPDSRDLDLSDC", "experiment": "In-vitro determination of affinity to CB2 receptor (radioligand [^3H]-CP55940)", "format": "binding", "method": "as §1, §2"}, "Male NMRI mice [3]": {"tested_on": "Male NMRI mice", "experiment": "Mouse tetrad model, agonistic effect", "format": "in vivo", "settings": "5 mg/kg i.v.", "text": "(§3) Substances with affinity for cannabinoid receptors are known to produce a wide range of pharmacological effects. It is also known that intravenous administration of a substance with affinity for cannabinoid receptors in mice produces analgesia , hypothermia, sedation and catalepsy. Individually, none of these effects can be considered as proof that a tested substance has affinity for cannabinoid-receptors, since all of these effects are common for various classes of centrally active aaents. However, substances, which show all of these effects, i.e. substances that are active in this so-called tetrad model are considered to have affinity for the cannabinoid receptors. It has further been shown that cannabinoid receptor antagonists are higly effective in blocking the effects of a cannabinoid agonist in the mouse tetrad model.\n(§4) The tetrad model is described, for example, in the publication of A. C. Howlett et al, International Union of Pharmacology XXVII. Classification of Cannabinoid Receptors, Pharmacol Rev 54, 161-202 , 2002 and David R. Compton et al., \"In-vivo Characterization of a Specific Cannabinoid Receptor Antagonist (SR141716A) :Inhibition of Tetrahydrocannbinol- induced Responses and Apparent Agonist Activity\", J. Pharmacol. Exp. Ther. 277 , 2, 586-594, 1996. The corresponding parts of the description are hereby incorporated by reference. […]\n(§5) Before testing in the behavioral procedures given below, mice are acclimatized to the experimental setting. Pre-Treatment control values are determined for analgesia hot plate latency (in seconds), rectal temperature, sedation and catalepsy.\nIn order to determine the agonistic activty of the substance to be tested, the mice are injected intravenously with the substance to be tested or the vehicle alone. 15 minutes after injection, latency in hot plate analgesia is measured. Rectal temperature, sedation and catalepsy are measured 20 minutes after injection.\n(§6) The hot plate analgesia is determined according to the method described in Woolfe D. et al. \"The evaluation of analgesic action of pethidine hydrochloride (Demerol)\", J. Pharmacol. Exp. Ther. 80, 300-307,1944.\n(§7) The mice are placed on a hot plate (Harvard Analgesimeter) at 55 ± 0.5 °C until they show a painful sensation by licking their paws or jumping and the time for these sensations to occur is recorded. This reading is considered the basal value (B). […]\n(§8) Fifteen minuts after the administration of the substance to be tested, the mice are again placed on the hot plate and the afore described procedure is repeated. This period is called the post-treatment reading (PT).\n(§9) The degree of analgesia is calculated from the formula: %MPEof Analgesia = (PT−B)/(PC−B) × 100 [formula] […]"}, "Male NMRI mice [4]": {"tested_on": "Male NMRI mice", "experiment": "Mouse tetrad model, antagonistic effect against Win 55212-2", "format": "in vivo", "settings": "5 mg/kg i.v. prior to Win 55212-2 in a dose of 1,25mg/kg i.v.", "text": "as §3, §4, §5\nIn order to determine the antagonistic activity the identical procedure is used as for the determination of the agonistic effects, but with the difference that the substance to be evaluated for its antagonistic activity is injectected 5 minutes before the intravenous injection of 1.25 mg/kg Win-55,212 a known cannabinoid-receptor agonist.\nas §6, §7, §8, §9"}},
  "data": [
    {"compound": "O=C(NN1CCCCC1)C1=NN(c2ccc(Cl)cc2Cl)C(c2ccc(Cl)cc2)C1", "note": "(stereo not shown) [Example 1, N-piperidinyl-5-(4-chlorophenyl)-1-(2,4-dichlorophenyl)-4,5-dihydro-1H-pyrazole-3-carboxamide]", "values": [
      {"measurement": "Ki", "setting": "[1]", "result": "< 25", "unit": "nM"},
      {"measurement": "Ki", "setting": "[2]", "result": "> 1000", "unit": "nM"},
      {"measurement": "Agonistic effect A: Hot-Plate test", "setting": "Male NMRI mice [3]; 15 minutes after injection", "result": 0},
      {"measurement": "Agonistic effect B: Hypothermia", "setting": "Male NMRI mice [3]; 20 minutes after injection", "result": 0},
      {"measurement": "Agonistic effect C: Catalepsy", "setting": "Male NMRI mice [3]; 20 minutes after injection", "result": 0},
      {"measurement": "Agonistic effect D: Sedation", "setting": "Male NMRI mice [3]; 20 minutes after injection", "result": 0},
      {"measurement": "Antagonistic Effect A: Hot-Plate test", "setting": "Male NMRI mice [4]", "result": 74},
      {"measurement": "Antagonistic Effect B: Hypothermia", "setting": "Male NMRI mice [4]", "result": 100},
      {"measurement": "Antagonistic Effect C: Catalepsy", "setting": "Male NMRI mice [4]", "result": 100},
      {"measurement": "Antagonistic Effect D: Sedation", "setting": "Male NMRI mice [4]", "result": 100}
    ]}
  ]
}
